Assay type in all cases: cell-based
One assay deals with T1, TLR7 (Homo sapiens, UniProt Q9NYK1).
T1 construct: host or cells: HEK-Blue hTLR7 cells (HEK293-derived SEAP reporter line)
T1 sequence (Q9NYK1 27-1049): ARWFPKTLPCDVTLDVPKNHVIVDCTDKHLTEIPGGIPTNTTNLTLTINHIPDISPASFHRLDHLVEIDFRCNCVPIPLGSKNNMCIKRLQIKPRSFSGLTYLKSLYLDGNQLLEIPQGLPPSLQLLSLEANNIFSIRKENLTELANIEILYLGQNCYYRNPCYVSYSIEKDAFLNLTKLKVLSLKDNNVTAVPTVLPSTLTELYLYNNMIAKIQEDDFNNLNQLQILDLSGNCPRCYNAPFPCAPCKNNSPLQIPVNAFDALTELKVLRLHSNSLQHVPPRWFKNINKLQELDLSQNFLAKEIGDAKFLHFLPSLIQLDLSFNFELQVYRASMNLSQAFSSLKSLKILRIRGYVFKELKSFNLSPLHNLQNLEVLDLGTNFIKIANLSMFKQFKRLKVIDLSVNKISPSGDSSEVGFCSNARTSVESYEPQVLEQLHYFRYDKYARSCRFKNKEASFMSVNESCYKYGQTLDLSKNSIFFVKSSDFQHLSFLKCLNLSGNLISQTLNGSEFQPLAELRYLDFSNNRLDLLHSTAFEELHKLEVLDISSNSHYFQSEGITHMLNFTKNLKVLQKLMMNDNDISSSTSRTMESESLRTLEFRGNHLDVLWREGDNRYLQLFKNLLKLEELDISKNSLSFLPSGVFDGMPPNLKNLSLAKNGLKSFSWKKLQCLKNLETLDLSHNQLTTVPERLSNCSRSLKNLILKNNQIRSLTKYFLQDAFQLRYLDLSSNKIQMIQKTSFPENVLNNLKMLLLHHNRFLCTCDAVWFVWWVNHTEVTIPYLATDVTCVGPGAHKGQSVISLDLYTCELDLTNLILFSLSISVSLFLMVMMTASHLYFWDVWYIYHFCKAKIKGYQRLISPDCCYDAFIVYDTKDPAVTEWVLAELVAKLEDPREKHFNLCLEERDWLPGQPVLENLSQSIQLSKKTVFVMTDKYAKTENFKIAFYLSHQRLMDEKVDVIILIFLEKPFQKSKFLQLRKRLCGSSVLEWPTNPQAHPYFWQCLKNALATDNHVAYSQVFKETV
The experiment in a line: Detection of TLR7 activation (HEK-Blue Detection), SEAP reporter. The conditions noted are these: for EC50: HEK-Blue hTLR7 cells, 6-16 hrs, absorbance 650 nm. As to the method:
HEK-Blue™hTLR7 cells (purchased from InvivoGen) in a logarithmic growth phase were taken, with a growth medium (Gibco, C11995500BT, Invivo Gen, ant-nr) discarded. The cells were gently rinsed twice by an appropriate amount of 37° C. PBS (Hyclone, SH30256.01), a rinsed PBS was discarded. Thereafter, the cells were added with 2-5 mL of 37° C. PBS, incubated for 1 to 2 minutes, and then scraped by a cell scraper and gently pipetted to be dispersed into a single cell suspension. A hemocytometer was adopted to count the cells and a cell concentration was calculated. After that, a HEK-Blue™ Detection solution (purchased from Invivo Gen) was adopted to adjust the cell concentration of the cell suspension to 2.5×10^4/180 μL per well for cell plating on a 96-well cell culture plate. The HEK-Blue™hTLR7 cells were stimulated according to the designed series of GY compound or drug concentrations (0.01 μM, 0.1 μM, 1 μM, 5 μM, 15 μM, and 30 μM), with 3 replicate wells for each concentration, and were incubated at 37° C., 5% carbon dioxide for 6-16 hrs. After the incubation, the absorbance value was read at 650 nm with a full-wavelength microplate reader (BioTek-Epoch), as listed in Table 2.
Relative induction=(average OD value of experimental group−average OD value of negative control group)/average OD value of negative control group.
Specific details for the above method may be referred to https: • //www.invivogen.com/hek-blue-htlr7; https://www.invivogen.com/sites/default/files/invivogen/products/files/hek_blue_htlr7_tds.pdf.

The subject of assay [1] is human lymphoma Daudi B cells. The experiment in a line: CCK8 growth inhibition, Daudi B. The conditions noted are these: CCK8 method; read-out: IC50 of inhibitory activity on tumor cell growth, Daudi B. A general note: Tetrazolium assays rely on reduction of a dye to a coloured formazan, in cell work by metabolically active cells.
Assay [2] concerns human lymphoma Raji cells. The experiment in a line: CCK8 growth inhibition, Raji. The conditions noted are these: CCK8 method, read-out: IC50 of inhibitory activity on tumor cell growth, Raji.
For assay [3], the system named is human leukemia HL-60 cells. The experiment in a line: CCK8 growth inhibition, HL60. The conditions noted are these: Homo sapiens, HL-60, CCK8 method; read-out: IC50 of inhibitory activity on tumor cell growth, HL60.
Assay [4] concerns murine spleen lymphocytes. The experiment in a line: Cytokine stimulation of murine spleen lymphocytes, ELISA. The conditions noted are these: for EC50: Lymphocyte. As to the method:
The stimulating effect of a series of GY compounds or drugs on murine spleen lymphocytes was detected by ELISA.
6-week-old Balb/c mice were sacrificed by cervical dislocation, spleens were taken under aseptic conditions. A 1 mL sterile syringe and a 200 mesh cell strainer were adopted to quickly grind and disperse the spleen into individual cells in 4 mL of a murine lymphocyte separation solution (Dakko's, 7211011). A resulting cell homogenate was transferred to a 15 mL centrifuge tube, then 1 mL of a RPMI 1640 medium (Hyclone, SH30809.01) was slowly added. Spleen lymphocytes were separated by a density gradient centrifugation method (800×g, 30 min), washed, red blood cells therein were lysed, such that a dispersed spleen lymphocyte suspension was obtained. Cells were counted by a hemocytometer, to calculate the cell concentration. A RPMI 1640 complete medium was adopted to adjust the cell suspension to a concentration of 1×10^6/ml/well, and the cells were then plated on a 24-well cell culture plate (Corning, 3524).
Murine spleen lymphocytes were stimulated according to the gradient concentrations of the series of GY compounds or drugs, and incubated in a 37° C., 5% carbon dioxide incubator for 24 hrs.
• (1) Coating: a Capture antibody (primary antibody, purchased from Invitrogen) was diluted with a 1×Coating Buffer (coating buffer, purchased from Invitrogen) to a recommended concentration, and 100 μL of a resulting diluted solution was added to each well of a 96-well microtiter plate, the plate was sealed with a sealing film at 4° C. overnight. • (2) Washing: a liquid in each well was discarded, then 300 μL of a PBST working solution was added to each well and kept for 1 min, thereafter, the liquid therein was discarded. The washing process was repeated 3 times. • (3) Blocking: 200 μL of a blocking solution was added to each well. The plate was sealed with a sealing film, and placed on a shaker and incubated at room temperature for 1 hr, then washed and patted to be dry. • (4) Sample incubation: a sample was collected and centrifuged to collect a supernatant. Standards, samples, negative controls, and blank controls were provided in the 96-well microtiter plate, and each concentration or sample were provided with 2 replicates. 100 μL of a standard or sample was added to each well, thereafter, the plate was sealed with a sealing film, incubated on a shaker at room temperature for 1 hr or overnight at 4° C., then washed and pated to be dry. • (5) Secondary antibody incubation: the detection antibody (secondary antibody, purchased from Invitrogen) was diluted to a recommended concentration with a dilution buffer, 100 μL of a secondary antibody was added to each well. After being sealed with a sealing film, the plate was incubated on a shaker at room temperature for 1 hr, then washed and patted to be dry. • (6) Avidin-HRP incubation: Avidin-HRP (horseradish peroxidase marker, purchased from Invitrogen) was diluted to the recommended concentration with a dilution buffer, 100 μL of Avidin-HRP was added to each well. After being sealed with a sealing film, the plate was placed on a shaker and incubated at room temperature for 30 mins, washed 5-7 times by the process of step 2), and patted to be dry. • (7) TMB color development: 100 μL of a TMB color development solution (purchased from Invitrogen) was added to each well, for carrying out reaction for 15 mins at room temperature in the dark. • (8) Stopping reaction: 50 μL of 1M H2SO4 solution was added to each well. • (9) Reading an absorbance value by a microplate reader: the OD value at 450 nm wavelength was read. A standard curve and a parameter nonlinear regression equation were drawn, and a sample concentration was calculated according to the obtained formula.
In general terms: An ELISA detects its analyte on a solid surface through an enzyme-linked reagent.

Setting [5] is: mouse immune cells (spleen lymphocytes), 24 hrs, ELISA, read-out: IFN-gamma EC50 of cytokine stimulating activity.
Where [6] appears, read: mouse immune cells (spleen lymphocytes), 24 hrs, ELISA, read-out: IL-6 EC50 of cytokine stimulating activity.
The mark [7] stands for this setting: mouse immune cells (spleen lymphocytes), 24 hrs, ELISA, read-out: TNF-alpha EC50 of cytokine stimulating activity.

Molecules are shown by their SMILES. Read-outs that look alike come from different tables or passages of the source.

For `CCCCOc1nc(N)c2nc(O)n(Cc3cn(CCOCCOCCOCCNC(=S)N4CCC(C5CCNc6c(C(N)=O)c(-c7ccc(Oc8ccccc8)cc7)nn65)CC4)nn3)c2n1` (single isomer, unassigned) [GY134], the EC50 at TLR7 (read-out: TLR7(EC50/μM)) came out at 1.99 µM. In addition, the IC50 in assay [1] is 6990 nM; in assay [2] (Homo sapiens, Raji), 5120 nM.
Regarding `CCCCOc1nc(N)c2nc(O)n(Cc3cn(CCOCCOCCOCCNC(=S)N4CCC(C5CCNc6c(C(N)=O)c(-c7ccc(Oc8ccccc8)cc7)nn65)CC4)nn3)c2n1` (single isomer, unassigned) [GY135], on TLR7 (read-out: TLR7(EC50/μM)), the EC50 stood at 9.07 µM. Further, the IC50 stood at 13100 nM in assay [3], 14600 nM in assay [1] and 7600 nM in assay [2].
For `CCOCc1nc2c(N)nc3ccccc3c2n1CC(C)(C)O` [Compound R848, Resiquimod, reference compound], the EC50 is 56 nM in assay [4] (setting [5]), < 1 nM in assay [4] (setting [6]) and < 1 nM in assay [4] (setting [7]).
For `C#CCn1c(O)nc2c(N)nc(OCCCC)nc21` [GY100], the “TLR7 agonist activity (in words)” value on TLR7 is given as “highly active TLR7 agonist”. The EC50 was 2.25 µM on TLR7 (read-out: TLR7(EC50/μM)), 104 nM in assay [4] (setting [5]), < 1 nM in assay [4] (setting [6]) and < 1 nM in assay [4] (setting [7]).
`CCCCOc1nc(N)c2nc(O)n(Cc3cn(CCOCCOCCOCC(=O)O)nn3)c2n1` [GY101]: the EC50 was determined as 0.003 µM on TLR7 (read-out: TLR7(EC50/μM)), 122 nM in assay [4] (setting [5]), 1050 nM in assay [4] (setting [6]) and 7 nM in assay [4] (setting [7]).
Taken in the same sequence, the figures for `CCCCOc1nc(N)c2nc(O)n(Cc3cn(CCOCCOCCOCCN)nn3)c2n1` [GY102] were 0.79 µM, 1070 nM, 637 nM and 1440 nM.
Taken in the same sequence, the figures for `CCCCOc1nc(N)c2nc(O)n(Cc3cn(CCCCCCCCCCCCP(=O)(O)O)nn3)c2n1` [GY103] were 0.86 µM, 3340 nM, 1510 nM and 2620 nM.
For the compound `CCCCOc1nc(N)c2nc(O)n(Cc3cn(CCOCCOCCOCCN=C=S)nn3)c2n1` [GY106], the EC50 is 0.08 µM on TLR7 (TLR7(EC50/μM)); 2830 nM in assay [4] (Mus musculus, 24 h, read-out: IFN-gamma EC50 of cytokine stimulating activity); < 1 nM in assay [4] (Mus musculus, 24 h, read-out: IL-6 EC50 of cytokine stimulating activity); < 1 nM in assay [4] (Mus musculus, 24 h, read-out: TNF-alpha EC50 of cytokine stimulating activity).
Turning to `C=C(CC(=O)NCCOCCOCCOCCn1cc(Cn2c(O)nc3c(N)nc(OCCCC)nc32)nn1)C(=O)O` [GY109], the EC50 at TLR7 (read-out: TLR7(EC50/μM)) stood at 0.65 µM; in assay [4] (setting [5]) it was 983 nM; in assay [4] (setting [6]), 653 nM; in assay [4] (setting [7]), 153 nM.
For the compound `CCCCOc1nc(N)c2nc(O)n(Cc3cn(CCOCCOCCOCCNC(=O)CCC(=O)Nc4cccc5c4CN(C4CCC(=O)NC4=O)C5=O)nn3)c2n1` (stereo not drawn) [GY110], the EC50 at TLR7 (read-out: TLR7(EC50/μM)) stood at 3.17 µM.
Same read-out and setting: the value for `CCCCOc1nc(N)c2nc(O)n(Cc3cn(CCOCCOCCOCCNC(=O)c4cc(/N=N/c5ccc(S(=O)(=O)Nc6ccccn6)cc5)ccc4O)nn3)c2n1` [GY113] was 1.87 µM; that for `CCCCOc1nc(N)c2nc(O)n(Cc3cn(CCOCCOCCOCCNC(=O)c4cc5c(Oc6ccc(NC(=O)NC7CC7)c(Cl)c6)ccnc5cc4OC)nn3)c2n1` [GY114] was 1.98 µM.
As to `CCCCOc1nc(N)c2nc(O)n(Cc3cn(CCOCCOCCOc4c(OC)cc(/C=C/C(=O)N5CCC=CC5=O)cc4OC)nn3)c2n1` [GY117], the EC50 at TLR7 (read-out: TLR7(EC50/μM)) turned out to be 0.22 µM. For the same compound, the IC50 in assay [3] was determined as 19000 nM.
For the compound `CCCCOc1nc(N)c2nc(O)n(Cc3cn(CCOCCOCCOCCNC(=S)NC(CCC(=O)NC(CS)C(=O)NCC(=O)O)C(=O)O)nn3)c2n1` (stereo not drawn) [GY126], at TLR7 (read-out: TLR7(EC50/μM)), the EC50 was found to be 0.92 µM.
The same measure, in the same setting: the value for `CCCCOc1nc(N)c2nc(O)n(Cc3cn(CCCCCCCCCCCCCCC(=O)O)nn3)c2n1` [GY145] was 0.29 µM.
For `CCCCOc1nc(N)c2nc(O)n(Cc3cn(CCOCCOCCOCC(=O)NO)nn3)c2n1` [GY163], the results for the EC50 in assay [4] (setting [5]), in assay [4] (setting [6]) and in assay [4] (setting [7]) were 7860 nM, 1100 nM and 58 nM, respectively.
For the compound `CCCCOc1nc(N)c2nc(O)n(Cc3cn(CCOCCOCCOCCNC(=S)NNCCc4ccccc4)nn3)c2n1` [GY164], the EC50 in assay [4] (setting [5]) amounted to 10 nM; in assay [4] (setting [6]), 5930 nM; in assay [4] (setting [7]) it was 1 nM.
For `CC(C)Cn1cnc2c(N)nc3ccccc3c21` [Imiquimod, reference compound], the values for the EC50 in assay [4] (setting [6]) and in assay [4] (setting [7]) were 8300 nM and 8350 nM, respectively. For the same compound, the “IFN-gamma EC50 of cytokine stimulating activity” value in assay [4] (mouse immune cells (spleen lymphocytes), 24 hrs, ELISA) is listed as “No fit”.

As a reminder, the IC50 is the concentration needed to halve the response being measured.

For the origin of these results see US12440571B2, “Immune agonists” (SHENZHEN UNIVERSITY, priority 2020, dated 2025).
